Measurements: publication PMC5011342, “A high throughput drug screening assay to identify compounds that promote oligodendrocyte differentiation using acutely dissociated and purified oligodendrocyte precursor cells” (BMC Research Notes, 2016)
Like-named read-outs stand apart in the source and are kept apart here.

How the values were obtained:
[1] = system: acutely dissociated and purified rat OPCs; test: Acute OL differentiation assay (MBP expression/cell, immunofluorescent image quantification); format: cell-based; settings: for activation at 0.4 µM: read-out: 0.4 uM (% Quet)
In short: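 This acute differentiation assay used purified rat OPCs from postnatal day 6–7 pups, seeded into PDL/laminin-coated 96-well plates in differentiation medium lacking PDGF and FGF. Compounds were applied in quadruplicate after a 1–2 h preincubation at 37 °C, 10 % CO2, with 0.1 % DMSO negative and 40 ng/ml T3 positive controls in eight wells. After fixation on DIV4, anti-MBP immunofluorescence images yielded MBP expression/cell.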

[2] = system: expanded OPCs; test: cells; settings: for viability at 0.1 µM / viability at 1 µM / viability at 10 µM: Rattus norvegicus, 72 h
In short: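 Toxicity screen: compounds added at 0.1, 1 and 10 µM to PDGF-AA-expanded OPCs in 96-well plates, 3-day incubation at 37 °C, 10% CO2, then alamarBlue 1:10 for 4 h with fluorescence readout. Results set screening doses of 10/2, 2/0.4 or 0.4/0.08 µM.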

[3] = Rattus norvegicus, test compound at 2 uM, MBP expression relative to quetiapine, NCC library screen, sheet "All OLga data", read-out: 2 uM (% Quet)
[4] = Rattus norvegicus, test compound at 10 uM, MBP expression relative to quetiapine, NCC library screen, sheet "All OLga data", read-out: 10 uM (% Quet)
[5] = alamarBlue viability of expanded OPCs, compound at 0.1 µM, relative to DMSO control
[6] = alamarBlue viability of expanded OPCs, compound at 1 µM, relative to DMSO control
[7] = alamarBlue viability of expanded OPCs, compound at 10 µM, relative to DMSO control
[8] = Rattus norvegicus, test compound at 2 uM, NCC library screen, sheet "All OLga data", relative to quetiapine, read-out: 2 uM (% Quet)
[9] = read-out: 0.1 µM (% DMSO), alamarBlue viability, NCC library compound at 0.1 µM, sheet "All Tox data"
[10] = read-out: 1 µM (% DMSO), alamarBlue viability, NCC library compound at 1 µM, sheet "All Tox data"
[11] = read-out: 10 µM (% DMSO), alamarBlue viability, NCC library compound at 10 µM, sheet "All Tox data"
[12] = Rattus norvegicus, test compound at 10 uM, NCC library screen, sheet "All OLga data", relative to quetiapine, read-out: 10 uM (% Quet)
[13] = Rattus norvegicus, 2 uM test compound, relative to quetiapine, sheet "All OLga data", read-out: OL differentiation, 2 uM (% Quet)
[14] = Rattus norvegicus, 10 uM test compound, relative to quetiapine, sheet "All OLga data", read-out: OL differentiation, 10 uM (% Quet)
[15] = read-out: 0.1 µM (% DMSO), alamarBlue viability of expanded OPCs, compound at 0.1 µM, sheet All Tox data
[16] = read-out: 1 µM (% DMSO), alamarBlue viability of expanded OPCs, compound at 1 µM, sheet All Tox data
[17] = read-out: 10 µM (% DMSO), alamarBlue viability of expanded OPCs, compound at 10 µM, sheet All Tox data

SMILES: CCOC(=O)[C@H](CCc1ccccc1)N[C@@H](C)C(=O)N1Cc2ccccc2C[C@H]1C(=O)O [Quinapril]
- activation at 2 µM [1, 3]: 2.2%
- activation at 10 µM [1, 4]: -12.2%
- 0.1 µM (% DMSO) [2, 5]: 95.3 % DMSO
- 1 µM (% DMSO) [2, 6]: 90.0 % DMSO
- 10 µM (% DMSO) [2, 7]: 85.6 % DMSO

SMILES: C=C[C@H]1C[N@@]2CC[C@H]1C[C@H]2[C@H](O)c1ccnc2ccc(OC)cc12 [Quinine]
- activation at 2 µM [1, 3]: -22.9%
- activation at 10 µM [1, 4]: -65.5%
- 0.1 µM (% DMSO) [2, 5]: 93.4 % DMSO
- 1 µM (% DMSO) [2, 6]: 87.0 % DMSO

SMILES: CN1CCc2cc(Cl)c(O)cc2[C@@H](c2ccccc2)C1 [R(+) SCH 23390]
- 0.4 uM (% Quet) ([1]; test compound at 0.4 uM, NCC library screen, sheet "All OLga data", relative to quetiapine): -16.1 % Quet
- 2 uM (% Quet) ([1]; test compound at 2 uM, NCC library screen, sheet "All OLga data", relative to quetiapine): -24.3 % Quet
- 0.1 µM (% DMSO) ([2]; alamarBlue viability, NCC library compound at 0.1 µM, sheet "All Tox data"): 84.2 % DMSO
- 1 µM (% DMSO) ([2]; alamarBlue viability, NCC library compound at 1 µM, sheet "All Tox data"): 78.8 % DMSO
- 10 µM (% DMSO) ([2]; alamarBlue viability, NCC library compound at 10 µM, sheet "All Tox data"): 64.1 % DMSO

SMILES: COc1ccc2[nH]cc(C3=CCNCC3)c2c1 [RU-24969]
- activation at 0.4 µM ([1]; Rattus norvegicus, test compound at 0.4 uM, NCC library screen, sheet "All OLga data", relative to quetiapine): -5.3%
- activation at 2 µM [1, 8]: -15.5%
- viability at 0.1 µM [2, 9]: 83.2%
- viability at 1 µM [2, 10]: 62.4%
- viability at 10 µM [2, 11]: 36.7%

SMILES: COCCCOc1ccnc(C[S+]([O-])c2nc3ccccc3[nH]2)c1C (stereo not shown) [Rabeprazole]
- activation at 2 µM [1, 8]: -8.5%
- activation at 10 µM [1, 12]: -69.9%
- viability at 0.1 µM [2, 9]: 101%
- viability at 1 µM [2, 10]: 85.1%
- viability at 10 µM [2, 11]: 76.7%

SMILES: CC(=O)SCC(Cc1ccccc1)C(=O)NCC(=O)OCc1ccccc1 (stereo not shown) [Racecadotril]
- activation at 2 µM [1, 13]: 23%
- activation at 10 µM [1, 14]: 56.4%
- viability at 0.1 µM [2, 15]: 87.4%
- viability at 1 µM [2, 16]: 92.9%
- viability at 10 µM [2, 17]: 77.6%

SMILES: CCN1CCC[C@H]1CNC(=O)c1c(O)c(Cl)cc(Cl)c1OC [Raclopride]
- activation at 2 µM [1, 13]: 12.4%
- activation at 10 µM [1, 14]: 43.4%
- viability at 0.1 µM [2, 15]: 93.2%
- viability at 1 µM [2, 16]: 92.8%
- viability at 10 µM [2, 17]: 89.9%

SMILES: O=C(c1ccc(OCCN2CCCCC2)cc1)c1c(-c2ccc(O)cc2)sc2cc(O)ccc12 [Raloxifene, reference compound]
- activation at 0.08 µM ([1]; Rattus norvegicus, test compound at 0.08 uM, MBP expression relative to quetiapine, NCC library screen, sheet "All OLga data", read-out: 0.08 uM (% Quet)): 91.9%
- activation at 0.4 µM ([1]; Rattus norvegicus, test compound at 0.4 uM, MBP expression relative to quetiapine, NCC library screen, sheet "All OLga data"): -62.1%
- EC50 ([1]; Rattus norvegicus, average EC50 for induction of OL differentiation from independent biological replicates, eight concentrations): 0.1 µM
- hit in OL differentiation assay, MRF-TMC ([1]; ● = confirmed hit in this paper's assay): ●
- 0.1 µM (% DMSO) [2, 5]: 161.1 % DMSO
- 1 µM (% DMSO) [2, 6]: 38.6 % DMSO
- 10 µM (% DMSO) [2, 7]: 7.7 % DMSO

SMILES: Cc1nc2ccc(CN(C)c3ccc(C(=O)N[C@@H](CCC(=O)O)C(=O)O)s3)cc2c(=O)[nH]1 [Raltitrexed]
- activation at 2 µM [1, 8]: -13.8%
- activation at 10 µM [1, 12]: -1.3%
- viability at 0.1 µM [2, 9]: 71.4%
- viability at 1 µM [2, 10]: 63.5%
- viability at 10 µM [2, 11]: 59.6%

SMILES: CCOC(=O)[C@H](CCc1ccccc1)N[C@@H](C)C(=O)N1[C@H](C(=O)O)C[C@@H]2CCC[C@@H]21 [Ramipril]
- activation at 2 µM [1, 13]: -3.3%
- activation at 10 µM [1, 14]: -14.5%
- activation at 2 µM [1, 3]: 2.5%
- activation at 10 µM [1, 4]: -1.1%
- viability at 0.1 µM [2, 15]: 90.8%
- viability at 1 µM [2, 16]: 98.4%
- viability at 10 µM [2, 17]: 100%
- 0.1 µM (% DMSO) ([2]; rat, 3 days, 0.1 µM): 92.1 % DMSO
- 1 µM (% DMSO) ([2]; rat, 3 days, 1 µM): 96.0 % DMSO
- 10 µM (% DMSO) ([2]; rat, 3 days, 10 µM): 96.0 % DMSO

SMILES: CNC(=C[N+](=O)[O-])NCCSCc1ccc(CN(C)C)o1 [Ranitidine]
- activation at 2 µM [1, 8]: -29.4%
- activation at 10 µM [1, 12]: -7.9%
- 0.1 µM (% DMSO) [2, 5]: 109.0 % DMSO
- 1 µM (% DMSO) [2, 6]: 105.8 % DMSO
- 10 µM (% DMSO) [2, 7]: 106.7 % DMSO
